Source: patent publication US20040097468A1, “Method of treating osteoporosis and other bone disorders with upfront loading of bisphosphonates, and kits for such treatment” (priority 2002, published 2004)

Assays:
[1] = system: humans; experiment: Spinal (vertebral) BMD, loading vs standard doses of bisphosphonates over one year; type: in vivo, human
Experimental: FIG. 4. illustrates the effects of standard recommended dose of risedronate (35 mg once a week), vs. loading dose of risedronate (for doses, see the section on oral administration of bisphosphonates) on vertebral BMD.
This will then be followed up with once weekly administration (i.e., infrequent administration) of a single dose of similar strength, what is currently used on a longer-term basis.

[2] = system: osteoporotic patients; settings: intravenous injections 0.5 or 1.0 mg every 3 months for 3 years; cited from earlier work

Structure (SMILES): O=P(O)(O)C(O)(Cc1cccnc1)P(=O)(O)O [risedronate, 1-hydroxy-2-(3-pyridinyl)-ethylidene-1,1-bisphosphonic acid]
- Increase in spinal BMD ([1]; risedronate loading dose, 3 months): +1.5%
- Increase in spinal BMD ([1]; risedronate loading dose, 6 months): +4.0%
- Increase in spinal BMD ([1]; risedronate loading dose, 12 months): +5.6%
- Increase in spinal BMD ([1]; risedronate standard dose (35 mg once a week), 3 months): +0.4%
- Increase in spinal BMD ([1]; risedronate standard dose (35 mg once a week), 6 months): +2.2%
- Increase in spinal BMD ([1]; risedronate standard dose (35 mg once a week), 12 months): +4.3%

Structure (SMILES): NCCCC(O)(P(=O)(O)O)P(=O)(O)O [alendronate, 4-amino-1-hydroxybutylidene-1,1-bisphosphonic acid monosodium trihydrate]
- Increase in spinal BMD ([1]; alendronate loading dose, 3 months): +1.2%
- Increase in spinal BMD ([1]; alendronate loading dose, 6 months): +3.6%
- Increase in spinal BMD ([1]; alendronate loading dose, 12 months): +5.8%
- Increase in spinal BMD ([1]; alendronate standard dose (70 mg once a week), 3 months): +0.4%
- Increase in spinal BMD ([1]; alendronate standard dose (70 mg once a week), 6 months): +1.1%
- Increase in spinal BMD ([1]; alendronate standard dose (70 mg once a week), 12 months): +4.5%

Structure (SMILES): CCCCCN(C)CCC(O)(P(=O)(O)O)P(=O)(O)O [ibandronate, 1-hydroxy-3-(N-methyl-N-pentylamino)propylidene-1,1-bisphosphonic acid]
- Change in BMD [2]: moderate increase in BMD
- Change in incidence of new osteoporotic fractures [2]: small, but not significant, decrease
